Data on 31 molecules can be found in patent US10875875B2, “Propionic acid derivatives and methods of use thereof” (Aviara Pharmaceuticals, Inc., priority 2017, dated 2020).

In the experiment the target is α4β1 (Homo sapiens, UniProt P05556+P13612). Nature of the experiment: α4β1 integrin inhibition, IC50. The format is binding. The conditions noted are these: read-out: α4β1 IC50.
Chain of α4β1 (P13612 34-1032): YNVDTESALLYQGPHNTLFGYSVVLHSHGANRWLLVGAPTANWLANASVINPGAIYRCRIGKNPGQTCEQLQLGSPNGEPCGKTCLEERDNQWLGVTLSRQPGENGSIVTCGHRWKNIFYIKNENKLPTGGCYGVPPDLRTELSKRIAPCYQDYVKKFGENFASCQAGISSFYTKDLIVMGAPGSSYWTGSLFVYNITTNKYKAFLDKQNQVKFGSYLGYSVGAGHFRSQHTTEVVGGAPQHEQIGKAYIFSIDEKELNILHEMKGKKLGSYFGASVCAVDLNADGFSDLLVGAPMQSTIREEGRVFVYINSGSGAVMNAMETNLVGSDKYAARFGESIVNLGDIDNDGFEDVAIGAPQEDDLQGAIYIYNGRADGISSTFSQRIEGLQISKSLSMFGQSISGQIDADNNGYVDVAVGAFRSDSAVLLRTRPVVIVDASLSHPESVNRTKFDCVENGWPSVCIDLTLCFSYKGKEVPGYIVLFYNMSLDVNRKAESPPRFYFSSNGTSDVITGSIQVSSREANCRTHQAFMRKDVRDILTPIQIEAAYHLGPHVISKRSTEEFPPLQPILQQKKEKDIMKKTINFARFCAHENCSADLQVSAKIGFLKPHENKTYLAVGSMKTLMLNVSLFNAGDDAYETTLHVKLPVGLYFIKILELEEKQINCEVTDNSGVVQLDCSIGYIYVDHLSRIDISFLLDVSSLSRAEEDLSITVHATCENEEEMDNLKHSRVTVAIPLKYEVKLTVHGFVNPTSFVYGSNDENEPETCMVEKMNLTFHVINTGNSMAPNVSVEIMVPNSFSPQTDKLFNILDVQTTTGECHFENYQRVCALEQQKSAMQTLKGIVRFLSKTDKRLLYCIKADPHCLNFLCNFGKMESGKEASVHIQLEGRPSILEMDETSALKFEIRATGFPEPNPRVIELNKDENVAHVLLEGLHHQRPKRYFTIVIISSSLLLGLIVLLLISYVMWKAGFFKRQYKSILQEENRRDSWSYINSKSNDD
Chain of α4β1 (P05556 21-798): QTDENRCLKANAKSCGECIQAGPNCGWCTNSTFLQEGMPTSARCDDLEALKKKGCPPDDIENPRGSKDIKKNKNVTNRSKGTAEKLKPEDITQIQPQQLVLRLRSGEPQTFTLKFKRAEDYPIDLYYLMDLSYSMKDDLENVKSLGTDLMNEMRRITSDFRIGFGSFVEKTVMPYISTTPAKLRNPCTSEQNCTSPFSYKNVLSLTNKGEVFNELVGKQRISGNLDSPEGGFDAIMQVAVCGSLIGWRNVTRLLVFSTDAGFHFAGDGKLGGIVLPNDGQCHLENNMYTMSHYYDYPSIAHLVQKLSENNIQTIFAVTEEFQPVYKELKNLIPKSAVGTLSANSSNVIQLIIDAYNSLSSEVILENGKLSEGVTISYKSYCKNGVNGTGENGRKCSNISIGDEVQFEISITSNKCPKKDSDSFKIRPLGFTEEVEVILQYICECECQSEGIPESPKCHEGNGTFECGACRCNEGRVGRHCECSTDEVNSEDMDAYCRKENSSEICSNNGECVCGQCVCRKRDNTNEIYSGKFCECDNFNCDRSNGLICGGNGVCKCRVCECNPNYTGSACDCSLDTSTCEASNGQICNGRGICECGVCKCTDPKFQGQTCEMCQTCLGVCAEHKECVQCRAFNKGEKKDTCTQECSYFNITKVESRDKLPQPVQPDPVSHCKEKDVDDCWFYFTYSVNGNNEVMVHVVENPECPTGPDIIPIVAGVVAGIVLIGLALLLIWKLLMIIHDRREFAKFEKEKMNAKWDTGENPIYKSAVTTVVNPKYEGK

A word on the IC50: it is the midpoint of a concentration-inhibition curve. In the case of `Cc1cscc1-c1ccc([C@H](CC(=O)O)NC(=O)Nc2c(O)cc(C)n(C)c2=O)s1` [1-585, sodium (S)-3-(3-(1,6-dimethyl-4-oxido-2-oxo-1,2-dihydropyridin-3-yl)ureido)-3-(4′-methyl-2,3′-bithiophen-5-yl)propanoate], the IC50 is less than 20 nM. Consider `COc1cccc(-c2cc(C)cc([C@H](CC(=O)O)NC(=O)Nc3c(O)cc(C)n(C)c3=O)c2)c1` [1-586, sodium (S)-3-(3-(1,6-dimethyl-4-oxido-2-oxo-1,2-dihydropyridin-3-yl)ureido)-3-(3′-methoxy-5-methylbiphenyl-3-yl)propanoate], for which the IC50 is less than 20 nM. Regarding `Cc1cccc(C)c1-c1ccc([C@H](CC(=O)O)NC(=O)Nc2c(O)ccn(C)c2=O)s1` [1-587, sodium (S)-3-(5-(2,6-dimethylphenyl)thiophen-2-yl)-3-(3-(1-methyl-4-oxido-2-oxo-1,2-dihydropyridin-3-yl)ureido)propanoate], the IC50 is less than 20 nM. In the case of `Cc1cccc(C)c1-c1ccc([C@H](CC(=O)O)NC(=O)Nc2c(O)cc(C)n(C)c2=O)s1` [1-588, sodium (S)-3-(3-(1,6-dimethyl-4-oxido-2-oxo-1,2-dihydropyridin-3-yl)ureido)-3-(5-(2,6-dimethylphenyl)thiophen-2-yl)propanoate], the IC50 is less than 20 nM. On to `Cc1cccc(C)c1-c1ccc(F)c([C@H](CC(=O)O)NC(=O)Nc2c(O)cc(C)n(C)c2=O)c1` [1-589, sodium (S)-3-(3-(1,6-dimethyl-4-oxido-2-oxo-1,2-dihydropyridin-3-yl)ureido)-3-(4-fluoro-2′,6′-dimethylbiphenyl-3-yl)propanoate], for which the IC50 is less than 20 nM. For the molecule `Cn1ccc(O)c(NC(=O)N[C@@H](CC(=O)O)c2cc(-c3ccc(F)cc3F)ccc2F)c1=O` [1-591, sodium (S)-3-(3-(1-methyl-4-oxido-2-oxo-1,2-dihydropyridin-3-yl)ureido)-3-(2′,4,4′-trifluorobiphenyl-3-yl)propanoate], the IC50 was less than 20 nM. `Cc1cc(O)c(NC(=O)N[C@@H](CC(=O)O)c2cc(-c3ccc(F)cc3F)ccc2F)c(=O)n1C` [1-592, sodium (S)-3-(3-(1,6-dimethyl-4-oxido-2-oxo-1,2-dihydropyridin-3-yl)ureido)-3-(2′,4,4′-trifluorobiphenyl-3-yl)propanoate]: the IC50 was less than 20 nM. In the case of `COc1cccc(-c2ccc(F)c([C@H](CC(=O)O)NC(=O)Nc3c(O)ccn(C)c3=O)c2)c1` [1-593, sodium (S)-3-(4-fluoro-3′-methoxybiphenyl-3-yl)-3-(3-(1-methyl-4-oxido-2-oxo-1,2-dihydropyridin-3-yl)ureido)propanoate] it was less than 20 nM.

With `Cn1ccc(O)c(NC(=O)N[C@@H](CC(=O)O)c2cc(-c3cccc(OC(F)(F)F)c3)ccc2F)c1=O` [1-594, sodium (S)-3-(4-fluoro-3′-(trifluoromethoxy)biphenyl-3-yl)-3-(3-(1-methyl-4-oxido-2-oxo-1,2-dihydropyridin-3-yl)ureido)propanoate], the IC50 is less than 20 nM. Regarding `Cc1cc(O)c(NC(=O)N[C@@H](CC(=O)O)c2cc(-c3cccc(OC(F)(F)F)c3)ccc2F)c(=O)n1C` [1-595, sodium (S)-3-(3-(1,6-dimethyl-4-oxido-2-oxo-1,2-dihydropyridin-3-yl)ureido)-3-(4-fluoro-3′-(trifluoromethoxy)biphenyl-3-yl)propanoate], the IC50 was less than 20 nM. Consider `COc1ccc(-c2ccccc2)cc1[C@H](CC(=O)O)NC(=O)Nc1c(O)ccn(C)c1=O` [1-596, sodium (S)-3-(4-methoxybiphenyl-3-yl)-3-(3-(1-methyl-4-oxido-2-oxo-1,2-dihydropyridin-3-yl)ureido)propanoate], for which the IC50 was less than 20 nM. In the case of `Cc1cc(-c2c(C)cccc2C)cc([C@H](CC(=O)O)NC(=O)Nc2c(O)cc(C)n(C)c2=O)c1` [1-597, sodium (S)-3-(3-(1,6-dimethyl-4-oxido-2-oxo-1,2-dihydropyridin-3-yl)ureido)-3-(2′,5,6′-trimethylbiphenyl-3-yl)propanoate] it was less than 20 nM; in that of `Cc1ccccc1-c1cccc([C@H](CC(=O)O)NC(=O)Nc2c(O)ccn(C)c2=O)c1` [1-598, sodium (S)-3-(3-(1-methyl-4-oxido-2-oxo-1,2-dihydropyridin-3-yl)ureido)-3-(2′-methylbiphenyl-3-yl)propanoate], less than 20 nM. Consider `Cc1ccccc1-c1cccc([C@H](CC(=O)O)NC(=O)Nc2c(O)cc(C)n(C)c2=O)c1` [1-599, sodium (S)-3-(3-(1,6-dimethyl-4-oxido-2-oxo-1,2-dihydropyridin-3-yl)ureido)-3-(2′-methylbiphenyl-3-yl)propanoate], for which the IC50 is less than 20 nM. Consider `Cc1cccc(C)c1-c1cc(F)cc([C@H](CC(=O)O)NC(=O)Nc2c(O)ccn(C)c2=O)c1` [1-600, sodium (S)-3-(5-fluoro-2′,6′-dimethylbiphenyl-3-yl)-3-(3-(1-methyl-4-oxido-2-oxo-1,2-dihydropyridin-3-yl)ureido)propanoate], for which the IC50 was less than 20 nM.

Regarding `Cn1ccc(O)c(NC(=O)N[C@@H](CC(=O)O)c2ccc(-c3cccc(OC(F)(F)F)c3)s2)c1=O` [1-601, sodium (S)-3-(3-(1-methyl-4-oxido-2-oxo-1,2-dihydropyridin-3-yl)ureido)-3-(5-(3-(trifluoromethoxy)phenyl)thiophen-2-yl)propanoate], the IC50 was less than 20 nM. For `COc1ccc(-c2c(C)cccc2C)cc1[C@H](CC(=O)O)NC(=O)Nc1c(O)ccn(C)c1=O` [1-602, sodium (S)-3-(4-methoxy-2′,6′-dimethylbiphenyl-3-yl)-3-(3-(1-methyl-4-oxido-2-oxo-1,2-dihydropyridin-3-yl)ureido)propanoate], the half-maximal inhibitory concentration (IC50) is less than 20 nM.

On to `COc1cccc(-c2ccc(F)c([C@H](CC(=O)O)NC(=O)Nc3c(O)cc(C)n(C)c3=O)c2)c1` [1-603, sodium (S)-3-(3-(1,6-dimethyl-4-oxido-2-oxo-1,2-dihydropyridin-3-yl)ureido)-3-(4-fluoro-3′-methoxybiphenyl-3-yl)propanoate], for which the IC50 was less than 20 nM. As for `COc1cccc(-c2cc(F)cc([C@H](CC(=O)O)NC(=O)Nc3c(O)ccn(C)c3=O)c2)c1` [1-604, sodium (S)-3-(5-fluoro-3′-methoxybiphenyl-3-yl)-3-(3-(1-methyl-4-oxido-2-oxo-1,2-dihydropyridin-3-yl)ureido)propanoate], the IC50 was less than 20 nM.

Regarding `COc1cccc(-c2cc(F)cc([C@H](CC(=O)O)NC(=O)Nc3c(O)cc(C)n(C)c3=O)c2)c1` [1-605, sodium (S)-3-(5-fluoro-3′-methoxybiphenyl-3-yl)-3-(3-(4-hydroxy-1,6-dimethyl-2-oxo-1,2-dihydropyridin-3-yl)ureido)propanoate], the IC50 was less than 20 nM. Consider `Cc1cc(O)c(NC(=O)N[C@@H](CC(=O)O)c2cc(F)cc(-c3cccc(OC(F)(F)F)c3)c2)c(=O)n1C` [1-606, sodium (S)-3-(3-(1,6-dimethyl-4-oxido-2-oxo-1,2-dihydropyridin-3-yl)ureido)-3-(5-fluoro-3′-trifluoromethoxybiphenyl-3-yl)propanoate], for which the IC50 is less than 20 nM.

In the case of `Cn1ccc(O)c(NC(=O)N[C@@H](CC(=O)O)c2cc(F)cc(-c3cccc(OC(F)(F)F)c3)c2)c1=O` [1-607, sodium (S)-3-(5-fluoro-3′-(trifluoromethoxy)biphenyl-3-yl)-3-(3-(1-methyl-4-oxido-2-oxo-1,2-dihydropyridin-3-yl)ureido)propanoate], the IC50 is less than 20 nM.

Take `Cc1noc(C)c1-c1ccc([C@H](CC(=O)O)NC(=O)Nc2c(O)ccn(C)c2=O)s1` [1-608, sodium (S)-3-(5-(3,5-dimethylisoxazol-4-yl)thiophen-2-yl)-3-(3-(1-methyl-4-oxido-2-oxo-1,2-dihydropyridin-3-yl)ureido)propanoate]: the IC50 was less than 20 nM. In the case of `Cc1noc(C)c1-c1cccc([C@H](CC(=O)O)NC(=O)Nc2c(O)cc(C)n(C)c2=O)c1` [1-609, sodium (S)-3-(3-(1,6-dimethyl-4-oxido-2-oxo-1,2-dihydropyridin-3-yl)ureido)-3-(3-(3,5-dimethylisoxazol-4-yl)phenyl)propanoate], the IC50 was less than 20 nM.

Turning to `Cc1cc(O)c(NC(=O)N[C@@H](CC(=O)O)c2cccc(-c3ccccc3)c2F)c(=O)n1C` [1-610, sodium (S)-3-(3-(1,6-dimethyl-4-oxido-2-oxo-1,2-dihydropyridin-3-yl)ureido)-3-(2-fluorobiphenyl-3-yl)propanoate], the IC50 was less than 20 nM. As for `Cc1ccccc1-c1cc([C@H](CC(=O)O)NC(=O)Nc2c(O)cc(C)n(C)c2=O)ccc1F` [1-611, sodium (S)-3-(3-(1,6-dimethyl-4-oxido-2-oxo-1,2-dihydropyridin-3-yl)ureido)-3-(6-fluoro-2′-methylbiphenyl-3-yl)propanoate], the IC50 was less than 20 nM. On to `Cc1ccccc1-c1cc([C@H](CC(=O)O)NC(=O)Nc2c(O)ccn(C)c2=O)ccc1F` [1-612, sodium (S)-3-(6-fluoro-2′-methylbiphenyl-3-yl)-3-(3-(1-methyl-4-oxido-2-oxo-1,2-dihydropyridin-3-yl)ureido)propanoate], for which the IC50 is less than 20 nM. Consider `Cn1ccc(O)c(NC(=O)N[C@@H](CC(=O)O)c2ccc(-c3ccccc3)s2)c1=O` [1-613, sodium (S)-3-(3-(1-methyl-4-oxido-2-oxo-1,2-dihydropyridin-3-yl)ureido)-3-(5-phenylthiophen-2-yl)propanoate], for which the IC50 is less than 20 nM. `Cn1ccc(O)c(NC(=O)N[C@@H](CC(=O)O)c2ccc(-c3cc(F)ccc3F)s2)c1=O` [1-614, sodium (S)-3-(5-(2,5-difluorophenyl)thiophen-2-yl)-3-(3-(1-methyl-4-oxido-2-oxo-1,2-dihydropyridin-3-yl)ureido)propanoate]: the IC50 is less than 20 nM.

In the case of `Cn1ccc(O)c(NC(=O)N[C@@H](CC(=O)O)c2cc(OC(F)(F)F)cc(-c3ccccc3)c2)c1=O` [1-615, sodium (S)-3-(3-(1-methyl-4-oxido-2-oxo-1,2-dihydropyridin-3-yl)ureido)-3-(5-(trifluoromethoxy)biphenyl-3-yl)propanoate], the IC50 is less than 20 nM. On to `Cc1ccccc1-c1ccc([C@H](CC(=O)O)NC(=O)Nc2c(O)ccn(C)c2=O)cc1` [1-616, sodium (S)-3-(3-(1-methyl-4-oxido-2-oxo-1,2-dihydropyridin-3-yl)ureido)-3-(2′-methylbiphenyl-4-yl)propanoate], for which the IC50 was less than 20 nM.
